According to patent US20070264372A1, “Cosmetic or pharmaceutical product for external use based on papaya” (priority 2006, published 2007):

Tested on: skin of the volunteers (volar surface of the forearm)
Assay: Keratolytic activity: desquamation index after occlusive Finn chamber application, Protocol c)
Assay type: in vivo, human
Description: Under Protocol c) a study was carried out aimed to evaluate the Keratolytic activity of a raw, fermented papaya material for cosmetic use. The study was carried out according to a double-blinded protocol with randomisation of the application sites. Under the test, irritating products were applied to the skin of the volunteers by means of an occlusive chamber (Finn chamber, Ø 7.0 mm) containing a disc of absorbing paper wetted with a known quantity (20 μl) of product. The exposure time to the irritating product (Salicylic acid at 1.5, 3.0 and 5.0% (w/v) concentration) was 3 and 6 hours. The application site of the irritating products selected for study purposes was the volar surface of the forearm. The products were applied on the skin of the volunteers for 3 and 6 hours. • b) desquamation index on the images acquired with Comeofix® tape and Visioscan® (Courage+Khazaka electronic GmbH). Desquamation index was calculated as: DI=[2A+(T1·(1−1)+T2·(2−1)+ . . . +Tn·(n−1)]/(n+1) • The variation was calculated as: [formula] I.D. [X]0: Basal desquamation index; I.D. [X]x: Desquamation index at the x concentration (1.5, 3.0 and 5.0%) of fermented papaya or salicylic acid.

O=C(O)c1ccccc1O [SALICYLIC ACID, Salicylic acid]
Variation of desquamation index (1.5% solution, 3 h application): 2.58 ± 0.24
Variation of desquamation index (1.5% solution, 6 h application): 2.71 ± 0.36
Variation of desquamation index (3.0% solution, 3 h application): 3.12 ± 0.24
Variation of desquamation index (3.0% solution, 6 h application): 3.24 ± 0.38
Variation of desquamation index (5.0% solution, 3 h application): 3.25 ± 0.26
Variation of desquamation index (5.0% solution, 6 h application): 3.59 ± 0.43
change of desquamation index (both after 3.0 and 6.0 hours of application, result in words): increase
application time at which the maximum keratolytic action was reached (statistical analysis): 3 h
concentration at which the maximum keratolytic action was reached (statistical analysis): 3.0%
